The source of these data is US8273788B2, “Five-membered iminocyclitol derivatives as selective and potent glycosidase inhibitors: new structures for antivirals and osteoarthritis therapeutics” (Academia Sinica, Taiwan, priority 2005, dated 2012).

The structures appear in SMILES notation. “And” between values parts separate entries of the source, which are not always exact repeats. Equal entries are not always repeated.

T1 sequence (P53341 whole entry): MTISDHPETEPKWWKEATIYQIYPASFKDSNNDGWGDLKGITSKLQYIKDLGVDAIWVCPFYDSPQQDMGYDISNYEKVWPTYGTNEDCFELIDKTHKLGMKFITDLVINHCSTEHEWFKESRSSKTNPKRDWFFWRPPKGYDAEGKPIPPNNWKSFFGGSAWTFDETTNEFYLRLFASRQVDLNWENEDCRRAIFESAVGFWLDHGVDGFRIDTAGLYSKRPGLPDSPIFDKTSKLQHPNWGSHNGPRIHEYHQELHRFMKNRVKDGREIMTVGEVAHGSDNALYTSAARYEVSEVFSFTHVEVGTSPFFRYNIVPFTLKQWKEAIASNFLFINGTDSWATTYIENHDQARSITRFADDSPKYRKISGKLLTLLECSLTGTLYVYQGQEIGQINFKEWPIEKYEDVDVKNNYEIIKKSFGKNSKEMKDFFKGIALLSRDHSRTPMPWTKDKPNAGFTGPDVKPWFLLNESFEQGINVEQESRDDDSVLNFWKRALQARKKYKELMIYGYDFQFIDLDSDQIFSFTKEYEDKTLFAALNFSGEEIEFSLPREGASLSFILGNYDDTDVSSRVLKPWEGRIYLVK

In one assay the test system is N-acetyl-β-hexosaminidase. As to the kind of experiment: N-acetyl-β-hexosaminidase inhibition assay (in situ screen, IC50, Ki). Particulars: reaction product at 30 μM, in situ screening. Type of assay: biochemical, jack bean. Here is the method: (§1) A mixture of iminocyclitol 4, a carboxylic acid (1 equiv, Scheme 2), diisopropyl ethylamine (DIEA, 2.2 equiv), and (1H-benzotriazole-1-yl)-1,1,3,3-tetramethyl-uronium hexafluorophosphate (HBTU, 1.1 equiv) in DMSO was shaken in 96-well microtiter plates for 5 h. Crude reaction products were randomly selected (30%) and analyzed by ESI-MS to ensure the presence of the desired products. The reaction mixture was diluted by appropriate buffer solutions and transferred to another 96-well microtiter plate for screening directly without any purification. […] Assuming the amide formation is complete, the percentage of inhibition relative to the control was calculated on the basis of absorbance at 405 nm for p-nitrophenol released from their corresponding substrates.
(§2) Enzyme assay. General procedure for the assay with various glycosidases. The initial velocities of the hydrolysis were measured spectrophotometrically at various concentrations of p-nitrophenyl-glycopyranoside (4 mM, 2 mM, 1 mM, 0.5 mM, 0.25 mM, 0.125 mM, 0.0625 mM) at 405 nm using Bio Assay Reader (Perkin Elmer HTS 7000 Plus) at 30° C. The obtained data were fitted into the Michaelis-Menten equation by using the Kaleida Graph program to determine the apparent Km values. […] The assays performed in wells of the microtiter plate contained either sodium phosphate buffer (50 mM, pH 7, for α- and β-glucosidase, α- and β-galactosidase, α- and β-mannosidase, α-fucosidase), or Mcllvaine's buffer (25 mM, pH 6, N-acetyl-β-hexosaminidase, jack bean).
(§3) The secondary plot was generated by plotting the apparent Km values as a function of inhibitor concentrations. Ki was calculated from the negative value of the x-intercept of this plot.
For `NC(Cn1ccc(=O)cc1)C(=O)NCC1NC(CO)C(O)C1O` (centres unmarked) [Compound 9], the “N-acetyl-β-hexosaminidse Inhibition (%)” value is 53%.
Still for that read-out and setting: as for `O=C(NC[C@H]1N[C@H](CO)[C@@H](O)[C@@H]1O)c1ccccc1` [Compound 10], the figure is 13%; as for `CN(C)c1ccc(C(=O)NC[C@H]2N[C@H](CO)[C@@H](O)[C@@H]2O)cc1` [Compound 11], 6%.
Same read-out and setting: with `O=C(/C=C/c1cccc(C(F)(F)F)c1)NC[C@H]1N[C@H](CO)[C@@H](O)[C@@H]1O` [Compound 12] the figure was 8%; with `O=C(/C=C/c1cccc(Cl)c1)NC[C@H]1N[C@H](CO)[C@@H](O)[C@@H]1O` [Compound 13], 3%; with `CSc1ccccc1C(=O)NC[C@H]1N[C@H](CO)[C@@H](O)[C@@H]1O` [Compound 14], 54%.
Same read-out and setting: with `O=C(NC[C@H]1N[C@H](CO)[C@@H](O)[C@@H]1O)c1ccc2[nH]ccc2c1` [Compound 19] the figure was 14%.
As to `O=C(NC[C@H]1N[C@H](CO)[C@@H](O)[C@@H]1O)c1ccc2c(c1)C(=O)c1ccccc1-2` [Compound 25], the “N-acetyl-β-hexosaminidse Inhibition (%)” value was found to be 17%.
Still for that read-out and setting: with `O=C(/C=C/c1cccc(Br)c1)NC[C@H]1N[C@H](CO)[C@@H](O)[C@@H]1O` [Compound 26] the figure was 17%; with `Cc1ccc(/C=C/C(=O)NC[C@H]2N[C@H](CO)[C@@H](O)[C@@H]2O)cc1` [Compound 27], 6%.
Regarding `COc1ccc(/C=C/C(=O)NC[C@H]2N[C@H](CO)[C@@H](O)[C@@H]2O)cc1OC(C)=O` [Compound 28], the “N-acetyl-β-hexosaminidse Inhibition (%)” value is on record as 52%.

Another assay concerns the target T1, α-glucosidase (Saccharomyces cerevisiae, UniProt P53341).
T1 construct: purchased Sigma Co. (St. Louis, Mo.); host or cells: baker's yeast
As to the kind of experiment: α-glucosidase inhibition assay (in situ screen, IC50, Ki). Type of assay: biochemical, baker's yeast. Particulars: pure compound. The procedure:
as §1
General procedure for coupling reactions and in situ screening. To a DMSO solution (10 μL) in each well of a 96-well microtiter plate was added each carboxylic acid (10 μL from a 10 mm stock solution in DMSO, 0.1 μmol), HBTU (10 μL from a 11 mm stock solution in DMSO, 1.1 equiv, 0.11 μmol), and DIEA (10 μL from a 22 mM stock solution in DMSO, 2.2 equiv, 0.22 μmol).
as §2, §3
In turn, `COc1ccc(/C=C/C(=O)NC[C@H]2N[C@H](CO)[C@@H](O)[C@@H]2O)cc1OC(C)=O` [Compound 28] displayed an IC50 of 250 µM.

Still in this assay, the particulars now being: reaction product at 20 μM, in situ screening.
Turning to `NC(Cn1ccc(=O)cc1)C(=O)NCC1NC(CO)C(O)C1O` (centres unmarked) [Compound 9], the “α-glucosidase Inhibition (%)” value was determined as 27%.
The same measure, in the same setting: as for `O=C(NC[C@H]1N[C@H](CO)[C@@H](O)[C@@H]1O)c1ccccc1` [Compound 10], the figure is 16%; as for `CN(C)c1ccc(C(=O)NC[C@H]2N[C@H](CO)[C@@H](O)[C@@H]2O)cc1` [Compound 11], 41%.
For `O=C(/C=C/c1cccc(C(F)(F)F)c1)NC[C@H]1N[C@H](CO)[C@@H](O)[C@@H]1O` [Compound 12], the “α-glucosidase Inhibition (%)” value came out at 19%.
Regarding `O=C(/C=C/c1cccc(Cl)c1)NC[C@H]1N[C@H](CO)[C@@H](O)[C@@H]1O` [Compound 13], the “α-glucosidase Inhibition (%)” value is on record as 19%.
As to `CSc1ccccc1C(=O)NC[C@H]1N[C@H](CO)[C@@H](O)[C@@H]1O` [Compound 14], the “α-glucosidase Inhibition (%)” value amounted to 51%.
On to `O=C(NC[C@H]1N[C@H](CO)[C@@H](O)[C@@H]1O)c1ccc2[nH]ccc2c1` [Compound 19], for which the “α-glucosidase Inhibition (%)” value stood at 82%.
As to `O=C(NC[C@H]1N[C@H](CO)[C@@H](O)[C@@H]1O)c1ccc2c(c1)C(=O)c1ccccc1-2` [Compound 25], the “α-glucosidase Inhibition (%)” value is 56%.
Regarding `O=C(/C=C/c1cccc(Br)c1)NC[C@H]1N[C@H](CO)[C@@H](O)[C@@H]1O` [Compound 26], the “α-glucosidase Inhibition (%)” value is given as 31%.
On to `Cc1ccc(/C=C/C(=O)NC[C@H]2N[C@H](CO)[C@@H](O)[C@@H]2O)cc1` [Compound 27], for which the “α-glucosidase Inhibition (%)” value stood at 26%.
On the same count and under the same terms, as for `COc1ccc(/C=C/C(=O)NC[C@H]2N[C@H](CO)[C@@H](O)[C@@H]2O)cc1OC(C)=O` [Compound 28], the figure is 27%.

For the next assay, the target named is β-glucosidase. Briefly: β-glucosidase inhibition assay (in situ screen, IC50, Ki). Type of assay: biochemical, almonds. Particulars: pure compound. The procedure:
as §1, §2, §3
In turn, `COc1ccc(/C=C/C(=O)NC[C@H]2N[C@H](CO)[C@@H](O)[C@@H]2O)cc1OC(C)=O` [Compound 28] displayed an IC50 of 2.4 µM.

The assay is the same for the next values; noted with them: reaction product at 20 μM, in situ screening.
With `NC(Cn1ccc(=O)cc1)C(=O)NCC1NC(CO)C(O)C1O` (centres unmarked) [Compound 9], the “β-glucosidase Inhibition (%)” value was determined as 37%.
Still for that read-out and setting: as for `O=C(NC[C@H]1N[C@H](CO)[C@@H](O)[C@@H]1O)c1ccccc1` [Compound 10], the figure is 12%; as for `CN(C)c1ccc(C(=O)NC[C@H]2N[C@H](CO)[C@@H](O)[C@@H]2O)cc1` [Compound 11], 55%.
The same measure, in the same setting: as for `O=C(/C=C/c1cccc(C(F)(F)F)c1)NC[C@H]1N[C@H](CO)[C@@H](O)[C@@H]1O` [Compound 12], the figure is 49%; as for `O=C(/C=C/c1cccc(Cl)c1)NC[C@H]1N[C@H](CO)[C@@H](O)[C@@H]1O` [Compound 13], 59%.
As to `CSc1ccccc1C(=O)NC[C@H]1N[C@H](CO)[C@@H](O)[C@@H]1O` [Compound 14], the “β-glucosidase Inhibition (%)” value is recorded as 7%.
Same read-out and setting: as for `O=C(NC[C@H]1N[C@H](CO)[C@@H](O)[C@@H]1O)c1ccc2[nH]ccc2c1` [Compound 19], the figure is 15%; as for `O=C(NC[C@H]1N[C@H](CO)[C@@H](O)[C@@H]1O)c1ccc2c(c1)C(=O)c1ccccc1-2` [Compound 25], 63%.
On the same count and under the same terms, as for `O=C(/C=C/c1cccc(Br)c1)NC[C@H]1N[C@H](CO)[C@@H](O)[C@@H]1O` [Compound 26], the figure is 52%.
The same measure, in the same setting: as for `Cc1ccc(/C=C/C(=O)NC[C@H]2N[C@H](CO)[C@@H](O)[C@@H]2O)cc1` [Compound 27], the figure is 55%.

Still in this assay, the particulars now being: value in brackets.
Take `COc1ccc(/C=C/C(=O)NC[C@H]2N[C@H](CO)[C@@H](O)[C@@H]2O)cc1OC(C)=O` [Compound 28]: the Ki was 1.24 µM and 1.2 µM.

The term IC50 denotes the concentration that inhibits the measured activity by half. A higher IC50 goes with a need for much substance. One may read the Ki as a dissociation constant, usually derived from enzyme kinetics or from competition with a known ligand. A low value points to higher affinity.
